The values that follow come from patent publication US10059703B2, “3-alkyl-5-fluoro-4-substituted-imino-3,4-dihydropyrimidin-2(1H)-one derivatives as fungicides” (Adama Makhteshim Ltd., priority 2012, dated 2018).

Like-named read-outs stand apart in the source and are kept apart here.

One series concerns Septoria tritici. In words: Fungicidal activity: leaf blotch of wheat, one-day protectant and three-day curative tests on wheat plants. To be noted: Zymoseptoria tritici. The series is classed as in vivo. The method, then:
Example 16: Evaluation of Fungicidal Activity: Leaf Blotch of Wheat (Mycosphaerella graminicola; anamorph: Septoria tritici; Bayer code SEPTTR)
Wheat plants (variety Yuma) were grown from seed in a greenhouse in 50% mineral soil/50% soil-less Metro mix until the first leaf was fully emerged, with 7-10 seedlings per pot. These plants were inoculated with an aqueous spore suspension of Septoria tritici either prior to or after fungicide treatments. After inoculation the plants were kept in 100% relative humidity (one day in a dark dew chamber followed by two to three days in a lighted dew chamber) to permit spores to germinate and infect the leaf. The plants were then transferred to a greenhouse for disease to develop.
The following tables present the activity of typical compounds of the present disclosure when evaluated in these experiments. The effectiveness of the test compounds in controlling disease was determined by assessing the severity of disease on treated plants, then converting the severity to percent control based on the level of disease on untreated, inoculated plants.
The following table presents the activity of typical compounds of the present disclosure when evaluated in these experiments. The effectiveness of the test compounds in controlling disease was determined by assessing the severity of disease on treated plants, then converting the severity to percent control based on the level of disease on untreated, inoculated plants.

The mark [1] stands for this setting: 24 h, One-Day Protectant (1 DP), 100 ppm, wheat plants (variety Yuma), read-out: SEPTTR 100 PPM 1 DP (% Disease Control rating).
[2] abbreviates: 72 h, Three-Day Curative (3 DC), 100 ppm, wheat plants (variety Yuma), read-out: SEPTTR 100 PPM 3 DC (% Disease Control rating).
Setting [3] is: 24 h, read-out: SEPTTR 100 PPM 1 DP (% Disease Control rating).
Where [4] appears, read: 72 h, read-out: SEPTTR 100 PPM 3 DC (% Disease Control rating).

In the case of `Cc1cc(S(=O)(=O)n2cc(F)/c(=N\Cc3ccccc3F)n(C)c2=O)c(C)cc1Cl` [Compound F58], the melting point is 208 to 210 °C. Besides, in the series with Septoria tritici (setting [1]), the pest or weed control at 100 ppm fell in the range of 0 to 25%. In addition, the pest or weed control at 100 ppm in the series on Septoria tritici (setting [2]) fell in the range of 0 to 25%.
Turning to `C/N=c1\c(F)cn(S(=O)(=O)c2cccc(C#N)c2)c(=O)n1C` [Compound F7], the melting point fell in the range of 148.6 to 150.6 °C. Besides, the pest or weed control at 100 ppm in the series on Septoria tritici (setting [1]) fell in the range of 26 to 50%. The pest or weed control at 100 ppm in the series on Septoria tritici (setting [2]) was in the range of 51 to 75%.
On to `C/N=c1\c(F)cn(S(=O)(=O)c2ccc(OC)cc2)c(=O)n1C` [Compound F1, (E)-5-fluoro-1-((4-methoxyphenyl)sulfonyl)-3-methyl-4-(methylimino)-3,4-dihydropyrimidin-2(1H)-one], for which the melting point lay within 97 to 105 °C. Moreover, the pest or weed control at 100 ppm in the series on Septoria tritici (setting [1]) lay within 76 to 100%. Also, in the series on Septoria tritici (setting [2]), the pest or weed control at 100 ppm fell in the range of 51 to 75%.
In turn, `C/N=c1\c(F)cn(S(=O)(=O)c2ccccc2OC)c(=O)n1C` [Compound F8] returned a melting point of 204 to 205.4 °C. For the same molecule, the pest or weed control at 100 ppm in the series with Septoria tritici (setting [1]) lay in the range of 76 to 100%. In addition, the pest or weed control at 100 ppm in the series with Septoria tritici (setting [2]) was 76 to 100%.
For `C/N=c1\c(F)cn(S(=O)(=O)c2cn(C)nc2C)c(=O)n1C` [Compound F18], the melting point lay within 147 to 149 °C. The pest or weed control at 100 ppm in the series with Septoria tritici (setting [1]) is 26 to 50%. Besides, the pest or weed control at 100 ppm in the series with Septoria tritici (setting [2]) is 76 to 100%.
For the molecule `C/N=c1\c(F)cn(S(=O)(=O)c2ccsc2)c(=O)n1C` [Compound F17], the melting point lay in the range of 121.1 to 122.6 °C. Besides, the pest or weed control at 100 ppm with Septoria tritici (setting [1]) was 76 to 100%. Besides, the pest or weed control at 100 ppm in the series with Septoria tritici (setting [2]) is 76 to 100%.
The molecule `CCc1ccc(S(=O)(=O)n2cc(F)/c(=N\C(=O)OC)n(C)c2=O)cc1` [Compound F47] came in with a melting point of 125 to 126 °C. The pest or weed control at 100 ppm with Septoria tritici (setting [1]) lay within 0 to 25%. The pest or weed control at 100 ppm in the series with Septoria tritici (setting [2]) was in the range of 0 to 25%.
Consider `CCc1ccc(S(=O)(=O)n2cc(F)/c(=N\C(C)=O)n(C)c2=O)cc1` [Compound F32], for which the melting point amounted to 158 °C. In addition, in the series on Septoria tritici (setting [1]), the pest or weed control at 100 ppm is 76 to 100%. The pest or weed control at 100 ppm in the series on Septoria tritici (setting [2]) fell in the range of 76 to 100%.
For the molecule `C/N=c1\c(F)cn(S(=O)(=O)c2cc(Cl)cc(Cl)c2)c(=O)n1C` [Compound F20], the melting point lay in the range of 135 to 136.9 °C. Moreover, in the series on Septoria tritici (setting [1]), the pest or weed control at 100 ppm lay within 26 to 50%. For the same molecule, the pest or weed control at 100 ppm in the series on Septoria tritici (setting [2]) fell in the range of 0 to 25%.
Consider `COC(=O)/N=c1\c(F)cn(S(=O)(=O)c2ccc(OC)cc2)c(=O)n1C` [Compound F27, methyl (5-fluoro-1-((4-methoxyphenyl)sulfonyl)-3-methyl-2-oxo-2,3-dihydropyrimidin-4(1H)-ylidene)carbamate], for which the melting point lay in the range of 124 to 125 °C. Besides, in the series with Septoria tritici (setting [1]), the pest or weed control at 100 ppm fell in the range of 0 to 25%. Moreover, the pest or weed control at 100 ppm in the series on Septoria tritici (setting [2]) lay in the range of 0 to 25%.
Consider `CC(=O)/N=c1\c(F)cn(S(=O)(=O)c2ccc(C)cc2)c(=O)n1C` [Compound F29], for which the melting point lay in the range of 134.6 to 136.2 °C. In addition, the pest or weed control at 100 ppm with Septoria tritici (setting [1]) lay in the range of 76 to 100%. Also, in the series on Septoria tritici (setting [2]), the pest or weed control at 100 ppm was 76 to 100%.
For `Cn1c(=O)n(S(=O)(=O)c2ccccc2)cc(F)/c1=N\C(=O)Oc1ccccc1` [Compound F38], the melting point is 170 to 171 °C. In addition, the pest or weed control at 100 ppm in the series on Septoria tritici (setting [3]) fell in the range of 76 to 100%. In the series with Septoria tritici (setting [4]), the pest or weed control at 100 ppm was in the range of 76 to 100%.
For the molecule `C/N=c1\c(F)cn(S(=O)(=O)c2cccc(C)c2)c(=O)n1C` [Compound F16], the melting point is 123.7 to 125.8 °C. Also, in the series with Septoria tritici (setting [1]), the pest or weed control at 100 ppm lay within 26 to 50%. The pest or weed control at 100 ppm in the series on Septoria tritici (setting [2]) lay within 0 to 25%.
Turning to `C/N=c1\c(F)cn(S(=O)(=O)c2cc(Cl)sc2Cl)c(=O)n1C` [Compound F9], the melting point lay within 157.1 to 158 °C. In addition, in the series on Septoria tritici (setting [1]), the pest or weed control at 100 ppm was in the range of 76 to 100%. Besides, in the series with Septoria tritici (setting [2]), the pest or weed control at 100 ppm was in the range of 76 to 100%.
For `CC(=O)/N=c1\c(F)cn(S(=O)(=O)c2ccc(C(C)C)cc2)c(=O)n1C` [Compound F33], the melting point was determined as 165 °C. Further, the pest or weed control at 100 ppm in the series with Septoria tritici (setting [1]) lay within 76 to 100%. For the same molecule, in the series with Septoria tritici (setting [2]), the pest or weed control at 100 ppm fell in the range of 26 to 50%.
In turn, `COC(=O)/N=c1\c(F)cn(S(=O)(=O)c2ccc(C(C)C)cc2)c(=O)n1C` [Compound F48] yielded a melting point of 116 to 117 °C. Also, the pest or weed control at 100 ppm in the series with Septoria tritici (setting [1]) lay within 0 to 25%. Further, the pest or weed control at 100 ppm with Septoria tritici (setting [2]) fell in the range of 0 to 25%.
`COc1ccc(S(=O)(=O)n2cc(F)/c(=N\C(=O)Oc3ccccc3)n(C)c2=O)cc1` [Compound F24, phenyl (5-fluoro-1-((4-methoxyphenyl)sulfonyl)-3-methyl-2-oxo-2,3-dihydropyrimidin-4(1H)-ylidene)carbamate] came in with a melting point of 190 to 193 °C. The pest or weed control at 100 ppm with Septoria tritici (setting [3]) lay in the range of 0 to 25%. For the same molecule, in the series on Septoria tritici (setting [4]), the pest or weed control at 100 ppm lay within 0 to 25%.
For `COC(=O)/N=c1\c(F)cn(S(=O)(=O)c2cccc(C)c2)c(=O)n1C` [Compound F49], the melting point was in the range of 200 to 201 °C. For the same molecule, the pest or weed control at 100 ppm in the series on Septoria tritici (setting [1]) fell in the range of 0 to 25%. The pest or weed control at 100 ppm in the series on Septoria tritici (setting [2]) lay within 0 to 25%.
`Cn1c(=O)n(S(=O)(=O)c2cc(Cl)sc2Cl)cc(F)/c1=N\C(=O)Oc1ccccc1` [Compound F44] showed a melting point of 158 to 159 °C. The pest or weed control at 100 ppm in the series with Septoria tritici (setting [3]) was in the range of 76 to 100%. In addition, the pest or weed control at 100 ppm with Septoria tritici (setting [4]) lay in the range of 76 to 100%.
On to `C/N=c1\c(F)cn(S(=O)(=O)c2c(C)cc(C)cc2C)c(=O)n1C` [Compound F15], for which the melting point was 175.7 to 177.6 °C. In the series on Septoria tritici (setting [1]), the pest or weed control at 100 ppm lay in the range of 26 to 50%. In the series with Septoria tritici (setting [2]), the pest or weed control at 100 ppm was 26 to 50%.
In turn, `CCc1ccc(S(=O)(=O)n2cc(F)/c(=N\Cc3ccccc3F)n(C)c2=O)cc1` [Compound F55] had a melting point of 140 to 141 °C. In the series with Septoria tritici (setting [1]), the pest or weed control at 100 ppm fell in the range of 0 to 25%. Also, in the series on Septoria tritici (setting [2]), the pest or weed control at 100 ppm lay in the range of 0 to 25%.
As for `CCc1ccc(S(=O)(=O)n2cc(F)/c(=N\C(=O)Oc3ccccc3)n(C)c2=O)cc1` [Compound F40], the melting point lay in the range of 188 to 190 °C. The pest or weed control at 100 ppm in the series on Septoria tritici (setting [3]) fell in the range of 0 to 25%. The pest or weed control at 100 ppm in the series on Septoria tritici (setting [4]) was 0 to 25%.
Take `Cn1c(=O)n(S(=O)(=O)c2cc(Cl)sc2Cl)cc(F)/c1=N\Cc1ccccc1F` [Compound F59]: the melting point lay in the range of 108 to 111 °C. The pest or weed control at 100 ppm in the series with Septoria tritici (setting [1]) lay in the range of 0 to 25%. Moreover, the pest or weed control at 100 ppm in the series on Septoria tritici (setting [2]) was in the range of 0 to 25%.
`Cc1ccc(S(=O)(=O)n2cc(F)/c(=N\Cc3ccccc3F)n(C)c2=O)cc1` [Compound F54] had a melting point of 184 to 187 °C. Further, the pest or weed control at 100 ppm in the series with Septoria tritici (setting [1]) was in the range of 0 to 25%. The pest or weed control at 100 ppm in the series with Septoria tritici (setting [2]) is 0 to 25%.
As for `Cn1c(=O)n(S(=O)(=O)c2ccccc2)cc(F)/c1=N\Cc1ccccc1F` [Compound F52], the melting point lay within 189 to 192 °C. Besides, in the series with Septoria tritici (setting [1]), the pest or weed control at 100 ppm was in the range of 0 to 25%. Also, in the series with Septoria tritici (setting [2]), the pest or weed control at 100 ppm fell in the range of 0 to 25%.
For `Cc1cccc(S(=O)(=O)n2cc(F)/c(=N\Cc3ccccc3F)n(C)c2=O)c1` [Compound F57], the melting point lay within 177 to 180 °C. For the same molecule, in the series on Septoria tritici (setting [1]), the pest or weed control at 100 ppm lay in the range of 0 to 25%. For the same molecule, the pest or weed control at 100 ppm in the series on Septoria tritici (setting [2]) is 0 to 25%.
Take `C/N=c1\c(F)cn(S(=O)(=O)c2cc(OC)ccc2OC)c(=O)n1C` [Compound F11]: the melting point fell in the range of 115 to 117.8 °C. In the series on Septoria tritici (setting [1]), the pest or weed control at 100 ppm was in the range of 76 to 100%. Besides, in the series on Septoria tritici (setting [2]), the pest or weed control at 100 ppm fell in the range of 76 to 100%.
For the molecule `COC(=O)/N=c1\c(F)cn(S(=O)(=O)c2ccc(C)cc2)c(=O)n1C` [Compound F46], the melting point lay in the range of 145 to 146 °C. Also, in the series with Septoria tritici (setting [1]), the pest or weed control at 100 ppm lay within 0 to 25%. Also, the pest or weed control at 100 ppm in the series on Septoria tritici (setting [2]) was 0 to 25%.
